The results in this text go back to patent US9383364B2, “Predictive marker of DNMT1 inhibitor therapeutic efficacy and methods of using the marker” (priority 2011, dated 2016).

Entries after “also recorded” stand apart in the source; their conditions may differ. Like-named read-outs stand apart in the source and are kept apart here.

The test system of one data set is A549 xenografts. As to the kind of experiment: A549 lung cancer xenograft model. An excerpt: (§1) U.S. Patent Publication No. 2008/0188570 (herein incorporated by reference in its entirety) further discloses more than 50 analogs of XB05 (BX11). […] In some embodiments, the DNMT1 inhibitor is XB05a (BX12).
A further data set deals with endothelial cell (HUVEC). As to the kind of experiment: transwell migration and tube formation assay. The settings on record: 800 nM XB05 (BX11). Format: cell-based.
The test system of data set [1] is several cancer cell lines, including prostate cancer. As to the kind of experiment: activity against cancer cell lines (Table 2). It counts as cell-based.
Data set [2] deals with HCT116 cells. As to the kind of experiment: induction of senescence. The following applies: 96 h with 100 nM XB05 (BX11). Format: cell-based.
For data set [3], the target named is T1, DNMT1 (Homo sapiens, UniProt P26358). As to the kind of experiment: in vitro DNMT1 activity assay. It counts as biochemical. An excerpt:
FIG. 9A is a schematic of an exemplary in vitro DNMT activity assay.
(§2) The assays use recombinant Human DNMT1 (FIG. 5A) or nuclear extracts prepared from cells treated with XB05 (BX11) or XB05a (BX12) (FIG. 5B).
Target sequence in this assay (P26358 whole entry): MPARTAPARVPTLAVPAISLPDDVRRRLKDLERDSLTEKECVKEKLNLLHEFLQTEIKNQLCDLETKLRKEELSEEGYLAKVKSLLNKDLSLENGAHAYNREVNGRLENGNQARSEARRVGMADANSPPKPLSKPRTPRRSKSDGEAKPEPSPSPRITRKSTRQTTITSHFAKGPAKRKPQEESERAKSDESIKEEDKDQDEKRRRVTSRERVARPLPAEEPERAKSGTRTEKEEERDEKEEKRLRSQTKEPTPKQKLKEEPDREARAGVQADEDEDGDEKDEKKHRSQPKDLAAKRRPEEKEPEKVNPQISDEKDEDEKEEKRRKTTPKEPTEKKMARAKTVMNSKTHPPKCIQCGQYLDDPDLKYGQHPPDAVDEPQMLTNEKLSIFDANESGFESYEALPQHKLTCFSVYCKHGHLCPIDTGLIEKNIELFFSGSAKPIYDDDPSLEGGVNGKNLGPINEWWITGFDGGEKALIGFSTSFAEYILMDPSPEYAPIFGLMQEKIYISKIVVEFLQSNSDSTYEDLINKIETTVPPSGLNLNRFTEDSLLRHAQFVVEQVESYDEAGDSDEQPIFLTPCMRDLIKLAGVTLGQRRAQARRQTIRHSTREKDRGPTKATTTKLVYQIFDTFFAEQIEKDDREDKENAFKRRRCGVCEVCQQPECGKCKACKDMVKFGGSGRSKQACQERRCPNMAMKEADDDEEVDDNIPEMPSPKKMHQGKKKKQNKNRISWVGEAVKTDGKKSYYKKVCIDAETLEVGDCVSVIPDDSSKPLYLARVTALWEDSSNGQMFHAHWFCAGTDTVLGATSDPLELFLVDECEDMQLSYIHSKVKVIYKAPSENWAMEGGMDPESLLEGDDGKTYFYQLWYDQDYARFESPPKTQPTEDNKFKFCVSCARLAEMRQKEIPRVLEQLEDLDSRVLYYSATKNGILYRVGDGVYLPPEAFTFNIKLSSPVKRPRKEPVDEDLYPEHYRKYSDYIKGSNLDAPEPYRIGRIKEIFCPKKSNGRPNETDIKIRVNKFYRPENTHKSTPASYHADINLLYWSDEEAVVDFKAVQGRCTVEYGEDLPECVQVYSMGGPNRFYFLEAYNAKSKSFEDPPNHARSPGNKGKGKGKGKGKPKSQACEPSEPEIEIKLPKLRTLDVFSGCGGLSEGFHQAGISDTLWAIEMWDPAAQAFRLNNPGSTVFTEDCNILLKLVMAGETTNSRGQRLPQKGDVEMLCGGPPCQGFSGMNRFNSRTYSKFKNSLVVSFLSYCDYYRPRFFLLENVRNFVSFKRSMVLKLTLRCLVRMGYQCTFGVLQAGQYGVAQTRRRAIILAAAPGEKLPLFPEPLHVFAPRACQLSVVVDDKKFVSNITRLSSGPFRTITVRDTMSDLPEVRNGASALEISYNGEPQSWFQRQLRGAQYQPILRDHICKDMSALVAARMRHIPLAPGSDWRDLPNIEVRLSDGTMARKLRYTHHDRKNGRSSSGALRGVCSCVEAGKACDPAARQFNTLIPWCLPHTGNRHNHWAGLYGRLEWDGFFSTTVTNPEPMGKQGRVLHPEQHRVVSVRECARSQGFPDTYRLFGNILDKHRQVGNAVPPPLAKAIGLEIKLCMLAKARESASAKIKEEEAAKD

Data set [4] relates to MDA-MB-231 breast cancer cells. As to the kind of experiment: RT-PCR and Western blotting of methylated (repressed) genes. Format: cell-based. The settings on record: 1 μM BX11 (XB05), 72 hours, control genes GAPDH and β-actin unchanged. The protocol:
Experiments described above were performed to test the effect of BX11 (XB05) on DNMT1 activity. The expression of a number of methylated (repressed) genes in MDA-MB-231 breast cancer cells was further determined using both RT-PCR and Western blotting following treatment with vehicle (control), 1 μM BX11 (XB05), or 10 μM 5-azacytidine (positive control).

Another data set has as its system HCT116 xenografts. As to the kind of experiment: HCT116 xenografts. The following applies: in vivo.
A further data set relates to A549 lung cancer cells. As to the kind of experiment: sensitivity of A549 cells to XB05. Format: cell-based. An excerpt: The present invention is based on the discovery that SOX9 expression in cancer cells is correlated with sensitivity to cell killing by XB05 (BX11). The COMPARE algorithm (Andrianasolo et al., J. Nat. Prod. 69:576-579, 2006) was used to search for correlations between response to XB05 (BX11) and gene expression using the NCI 60 cell line screen for XB05 (BX11) and the publicly available microarray studies of the NCI 60 panel. […] High levels of SOX9 expression were associated with high sensitivity to XB05 (BX11) across the 60 cell lines, as shown in FIG. 3. […] The experiments have been repeated multiple times and differences are statistically significant (p<0.05).

Another data set deals with LLC cells. As to the kind of experiment: clonogenic survival and MTT proliferation assays. It counts as cell-based. The settings on record: murine lung carcinoma, negative control. From the text: (§3) (3a) results from the NCI 60 cell screen showing a good correlation between the levels of expression of SOX9 and cell death induced by XB05 (BX11); (3b) Western blot showing expression of SOX9 in sensitive cell lines; (3c) clonogenic survival assay in cells sensitive or resistant to XB05 (BX11); (3d) MTT proliferation assays in cells sensitive or resistant to XB05 (BX11).
(§4) FIG. 3B are Western blots (WB) confirming expression of Biomarker X (SOX9) protein in the sensitive cell lines. […] Where indicated, HCT116 cells (colon cancer, sensitive to XB05 (BX11)) and LLC cells (murine lung carcinoma, resistant to XB05 (BX11)) are shown as positive and negative controls, respectively. (SOX9 levels were not assayed in LLC cells because they are of mouse origin).
(In general: Tetrazolium assays rely on reduction of a dye to a coloured formazan, in cell work by metabolically active cells.)

The test system of data set [5] is HCT116 cells. As to the kind of experiment: clonogenic survival and MTT proliferation assays. The settings on record: colon cancer, positive control. It counts as cell-based.
Description: as §3, §4

Data set [6] relates to MDA-MB-231 breast cancer cells. As to the kind of experiment: tumorsphere formation assay. The settings on record: day 12 after plating. Format: cell-based. As for the experimental part:
FIG. 4D are data from tumorsphere formation assays for MDA-MB-231 breast cancer cells on day 12 after plating. The data shown are representative images from three separate experiments.
FIG. 4E is a graph of the data from the tumorsphere formation assays for MDA-MB-231 breast cancer cells on day 12 after plating.
(§5) BX11 (XB05) has potent antiproliferative and cytotoxic activity on a variety of breast cancer cell types, with some cell types having GI50 values less than or equal to 10 μM. There were several cell lines that seemed particularly sensitive to the cytotoxic effects of BX11 (BX05). […] The MDA-MB-231 cell line is derived from a triple negative breast cancer (TNBC) and MDA-MB-435 was originally described as being derived from a TNBC, although its origin is now uncertain (it is unquestionably derived from the same source as the M14 melanoma cell line and many believe it is a melanoma, although some argue that both cell lines are derived from a breast carcinoma). […] This latter assay is often used to assess activity against the subpopulation of stem-like cancer cells with enhanced tumor-initiating capacity.

In a further data set the test system is MDA-MB-435. As to the kind of experiment: NCI60 breast cancer panel, cytotoxic effect. It counts as cell-based, human. The following applies: 1 μM BX11, FIG. 4A. As for the experimental part:
(§6) FIG. 4A is NCI60 data showing the effect of XB05 (BX11) on proliferation of various breast cancer cell lines. All cells lines are sensitive to XB05 (BX11) cytostatic effects (GI50<100 nM), whereas a few are especially susceptible to cytotoxic effects (e.g., see 1 μM XB05 (BX11) data points).
as §5

The next data set deals with MDA-MB-231. As to the kind of experiment: NCI60 breast cancer panel, cytotoxic effect. Format: cell-based, human. The settings on record: 1 μM BX11, FIG. 4A. As for the experimental part:
as §6, §5

For a further data set, the system named is global DNA methylation. As to the kind of experiment: global DNA methylation. It counts as cell-based. An excerpt: XB05 (BX11) has activities that slightly differ from other agents in this class of compounds. This is illustrated not only by the NCI 60 data, but also by the effects of XB05 (BX11) and 5-aza on cancer cells and tumor xenografts (FIG. 7). […] XB05 (BX11) and 5-aza may inhibit DNMT activity by different mechanisms.

Data set [7] relates to GSTP1 promoter from LNCaP cells. As to the kind of experiment: methylation specific PCR of GSTP1 promoter. The settings on record: 100 nm XB05 (BX11). Format: cell-based.
For data set [8], the system named is DU145 and LNCaP prostate cancer cells. As to the kind of experiment: RT-PCR mRNA expression of silenced tumor suppressor genes. It counts as cell-based.
A further data set concerns breast cancer cell lines. As to the kind of experiment: NCI60 data, proliferation of breast cancer cell lines. The settings on record: all breast cancer cell lines, FIG. 4A, read-out: GI50 (cytostatic effects). Format: cell-based, human. The protocol:
as §6
A variety of different breast cancer cell lines were treated with 1 μM BX11, and the cytotoxic effect of 1 μM BX11 was determined. The cytotoxicity data for each breast cancer cell line was correlated with the SOX9 level present in each cell line prior to treatment.
as §5

In data set [9] the test system is MDA-MB-231 breast cancer cells. As to the kind of experiment: soft agar colony formation assay. Format: cell-based. The following applies: stained 21 days after plating. The protocol: FIG. 4B are data from soft agar colony formation assays for MDA-MB-231 breast cancer cells. The cells were stained with crystal violet 21 days after plating.
FIG. 4C is a graph of the data from the soft agar colony formation assays for MDA-MB-231 breast cancer cells. The data shown are the mean±standard error (n=3).
as §5

Data set [10] deals with T1, DNMT1. As to the kind of experiment: DNMT1 activity in nuclear extracts from treated cells. The following applies: FIG. 5B. Also on record: endogenous in cells. It counts as cell-based.
Description: as §2
Target sequence in this assay (P26358 whole entry, species assumed): as the sequence (P26358 whole entry) above

A further data set concerns HOP92 cells. As to the kind of experiment: SOX9 siRNA knockdown, cell number and viability. It counts as cell-based. The following applies: 60 nM siRNA 24 hours, then XB05 48 hours. The protocol: In a second set of experiments, HOP92 cells were transfected for 24 hours with 60 nM siRNA against SOX9, control siRNA, or no RNA (mock). Knockdown of SOX9 was confirmed by Western blots (WB). Cells were then treated with XB05 (BX11) as indicated. After 48 hours, the cell number and viability for each sample was determined using an automated cell counter.

For the next data set, the system named is Colo-205 xenografts. As to the kind of experiment: Colo-205 xenografts in nude mice. It counts as in vivo. The settings on record: for non-specific toxicities as judged by body weight: 25 mg/kg daily for 21 days i.v., FIG. 7C; for in vivo antitumor efficacy: 25 mg/kg/day i.v. for 21 days, FIGS. 7A and 7B.
A short description of another data set: aqueous stability. Format: physicochemical. The following applies: addressed by cremaphor/ethanol/NaCl formulation.
Description: as §1

Data set [11] can be described thus: anti-proliferative assays. Format: cell-based.
Description: as §1

Regarding `CCCCCC(O)C#CC(F)(F)Br` (centres unmarked) [XB05 (BX11)], in the data set on A549 xenografts (i.v. 25 mg/kg/day x 21, monotherapy), the “tumor growth delay, alone” value was “significant tumor growth delay”. For the same molecule, the “tumor growth delay, in combination with cisplatin” value in the data set on A549 xenografts (i.v. 25 mg/kg/day x 21 plus cisplatin 4 x 4 mg/kg every 3 days) is listed as “significant tumor growth delay”. In addition, the “endothelial cell function (transwell migration, tube formation)” value in the data set with endothelial cell (HUVEC) was “inhibition; also recorded: inhibitory effects”; in the data set on endothelial cell (HUVEC) (listed as XB05), “Inhibits endothelial cell activity in in vitro assays”. Further, in the data set with endothelial cell (HUVEC), the “toxicity to HUVECs” value is given as “non-toxic”. For the same molecule, in data set [1], the “potent activity against several cancer cell lines” value is “Discovered by chance to have potent activity (<100 nM) against”. For the same molecule, the “senescence in cancer cells” value with HCT116 cells [2] is “induction of senescence; also recorded: induce cellular senescence”; in the data set with HCT116 cells [2] (listed as XB05) it was “Induces senescence in cancer cells”. For the same molecule, the DNMT1 activity entry at DNMT1 [3] (recombinant human DNMT1, FIG. 5A) is “inhibitory effects”; on DNMT1 [10], “inhibitory effects”. Besides, on DNMT1 [3] (summary statement, assay form not specified), the DNMT activity result is listed as “Inhibits”. The “expression of genes commonly silenced by methylation” value is recorded as “re-expressed” in data set [4] and “specific reactivation” in data set [4] (listed as BX11 (XB05)). The “tumor necrosis ("hollow" tumors)” value in the data set on HCT116 xenografts is reported as “central tumor necrosis”. Besides, the “sensitivity to XB05 (BX11)” value with A549 lung cancer cells is listed as “modest sensitivity”; in the data set on LLC cells, “resistant”; with HCT116 cells [5] it was “sensitive”. In addition, in [6], the tumorsphere growth result was “inhibit”. For the same molecule, the cell death result in the data set on MDA-MB-435 and in the data set with MDA-MB-231 was “significant cell death” throughout. Further, the “effect on global DNA methylation” value in the data set with global DNA methylation was “no obvious effect”; in the data set on global DNA methylation (listed as XB05) it was “including no effect on global DNA methylation”. Also, the promoter methylation result in data set [7] was “inhibits”. Moreover, the “reactivation of silenced tumor suppressor genes” value in data set [8] and in [8] (listed as XB05) was “reactivates” throughout. In the data set on breast cancer cell lines, the GI50 was under 100 nM. Besides, in data set [9], the “colony formation in soft agar” value is “inhibit”. In addition, in the data set with HOP92 cells, the “anti-proliferative effects after knockdown of SOX9 using a specific siRNA” value is on record as “completely blocked”.

Consider `Nc1ncn([C@@H]2O[C@H](CO)[C@@H](O)[C@H]2O)c(=O)n1` [5-aza, 5-azacytidine, reference compound], for which the maximally tolerated dose with A549 xenografts (mouse, in vivo) came to 6 mg/kg. Moreover, the “effect on global DNA methylation” value in the data set on global DNA methylation is listed as “causes global DNA methylation”. Also, in the data set with global DNA methylation (5-aza used at higher concentrations than XB05 (BX11)), the “activity relative to XB05 (BX11)” value is recorded as “less active”.

Consider `CCCCCC(C#CC(F)(F)Br)OC(C)=O` (racemic) [XB05b (BX17)], for which, in the data set on Colo-205 xenografts, the “non-specific toxicities as judged by body weight” value is reported as “no evidence of any severe non-specific toxicities” and the “in vivo antitumor efficacy” value is listed as “in vivo antitumor efficacy”.

In the case of `CC/C=C\CCC(O)C#CC(F)(F)Br` (centres unmarked) [XB05a (BX12)], in the data set on Colo-205 xenografts, the “non-specific toxicities as judged by body weight” value is recorded as “no evidence of any severe non-specific toxicities” and the “in vivo antitumor efficacy” value is listed as “in vivo antitumor efficacy”. The “antitumor activity alone compared with 5-aza alone” value in the data set on A549 xenografts (5-aza at 6 mg/kg) is “more active”. Besides, the myelotoxicity result in the data set with A549 xenografts (data not shown) was “no significant myelotoxicity”. Also, the “toxicity (body weight loss) compared with 5-aza or cisplatin” value in the data set with A549 xenografts (mouse, in vivo) was “much less toxicity”. Further, the “activity in DNMT1 inhibition assays compared to XB05 (BX11)” value at DNMT1 [3] is listed as “equivalent or better activity”. Further, the aqueous stability result in the data set “aqueous stability” is given as “poor”. In [11], the “activity in anti-proliferative assays compared to XB05 (BX11)” value was “equivalent or better activity”.

The GI50 is the concentration giving 50% growth inhibition.
